Laboratory results taken from ChEMBL document CHEMBL3120093 (J Med Chem, 2014).

Legend:
[1] = Permeability of the compound at PH 7.4 by PAMPA; type: ADME; conditions: for Papp: read-out: permeability
[2] = Plasma concentration in rat at 5 mg/kg, po after 4 hrs; type: ADME, organism-based; parameters: dose 5 mg/kg, route oral
[3] = Drug uptake in rat liver at 5 mg/kg, po after 4 hrs; type: ADME, organism-based; parameters: dose 5 mg/kg, route oral; conditions: read-out: Drug uptake
[4] = AUC in rat at 5 mg/kg, po after 4 hrs; type: ADME, organism-based; parameters: time < 4 hr, dose 5 mg/kg, route oral; conditions: plasma
[5] = Clearance in rat at 2 mg/kg, iv after 4 hrs; type: ADME, organism-based; parameters: dose 2 mg/kg, route intravenous; conditions: in vivo
[6] = Oral bioavailability in rat at 5 mg/kg after 24 hrs; type: ADME, organism-based; conditions: in vivo
[7] = Half life in rat at 2 mg/kg, iv after 24 hrs; type: ADME, organism-based; parameters: dose 2 mg/kg, route intravenous; conditions: in vivo
[8] = AUC in rat at 5 mg/kg, po after 24 hrs; type: ADME, organism-based; parameters: time < 24 hr, dose 5 mg/kg, route oral; conditions: plasma
[9] = Volume of distribution in rat at 2 mg/kg, iv after 24 hrs; type: ADME, organism-based; parameters: dose 2 mg/kg, route intravenous; conditions: in vivo
[10] = Clearance in rat at 2 mg/kg, iv after 24 hrs; type: ADME, organism-based; parameters: dose 2 mg/kg, route intravenous; conditions: in vivo
[11] = Plasma concentration in dog at 3.5 mg/kg, po after 24 hrs; type: ADME, organism-based, Canis lupus familiaris; parameters: dose 3.5 mg/kg, route oral
[12] = Oral bioavailability in dog at 3.5 mg/kg after 24 hrs; type: ADME, organism-based, Canis lupus familiaris; conditions: in vivo
[13] = AUC in dog at 3.5 mg/kg, po after 24 hrs; type: ADME, organism-based, Canis lupus familiaris; parameters: time < 24 hr, dose 3.5 mg/kg, route oral; conditions: plasma
[14] = Drug uptake in rat liver at 5 mg/kg, po after 24 hrs; type: ADME, organism-based; parameters: dose 5 mg/kg, route oral; conditions: read-out: Drug uptake
[15] = Oral bioavailability in mouse at 20 mg/kg after 24 hrs; type: ADME, organism-based; conditions: plasma
[16] = AUC in mouse at 20 mg/kg, po after 24 hrs; type: ADME, organism-based; parameters: time < 24 hr, dose 20 mg/kg, route oral; conditions: plasma
[17] = Drug uptake in mouse liver at 20 mg/kg, po after 24 hrs; type: ADME, organism-based; parameters: dose 20 mg/kg, route oral; conditions: read-out: Drug uptake
[18] = Plasma concentration in mouse at 20 mg/kg, po after 24 hrs; type: ADME, organism-based; parameters: dose 20 mg/kg, route oral
[19] = Volume of distribution in mouse at 5 mg/kg, iv after 24 hrs; type: ADME, organism-based; parameters: dose 5 mg/kg, route intravenous; conditions: in vivo
[20] = Half life in mouse at 5 mg/kg, iv after 24 hrs; type: ADME, organism-based; parameters: dose 5 mg/kg, route intravenous; conditions: in vivo
[21] = Plasma concentration in dog at 3 mg/kg, po after 24 hrs; type: ADME, organism-based, Canis lupus familiaris; parameters: dose 3 mg/kg, route oral
[22] = Oral bioavailability in dog at 3 mg/kg after 24 hrs; type: ADME, organism-based, Canis lupus familiaris; conditions: plasma
[23] = AUC in dog at 3 mg/kg, po after 24 hrs; type: ADME, organism-based, Canis lupus familiaris; parameters: time < 24 hr, dose 3 mg/kg, route oral; conditions: plasma
[24] = Clearance in mouse at 5 mg/kg, iv after 24 hrs; type: ADME, organism-based; parameters: dose 5 mg/kg, route intravenous; conditions: in vivo
[25] = Volume of distribution in dog at 1 mg/kg, iv after 24 hrs; type: ADME, organism-based, Canis lupus familiaris; parameters: dose 1 mg/kg, route intravenous; conditions: in vivo

| SMILES | Papp [1] [×10⁻⁶ cm/s] | concentration at 4 h [2] [nM] | concentration at 4 h [3] [nM] | AUC at 4 h [4] [µM·h] | further results |
| --- | --- | --- | --- | --- | --- |
| CCN(CC)[C@@H](C(=O)N1CCC[C@H]1c1ncc(-c2ccc(-c3ccc(-c4cnc([C@@H]5CCCN5C(=O)[C@@H](c5ccccc5)N5CCCCC5)[nH]4)cc3)cc2)[nH]1)c1ccccc1 | 33.7 |  |  |  |  |
| COC(=O)N[C@@H](C(=O)N1CCC[C@H]1c1ncc(-c2ccc(-c3ccc(-c4cnc([C@@H]5CCCN5C(C)=O)[nH]4)cc3)cc2)[nH]1)c1ccccc1 | 50 |  |  |  |  |
| CCN(CC)[C@@H](C(=O)N1CCC[C@H]1c1ncc(-c2ccc(-c3ccc(-c4cnc([C@@H]5CCCN5C(=O)[C@@H](NC(=O)OC)C(C)C)[nH]4)cc3)cc2)[nH]1)c1ccccc1 | 70.6 | 13 | 1230 | 0.034 |  |
| COC(=O)N[C@H](C(=O)N1CCC[C@H]1c1ncc(-c2ccc(-c3ccc(-c4cnc([C@@H]5CCCN5C(=O)[C@@H](NC(=O)OC)[C@@H](C)OC)[nH]4)cc3)cc2)[nH]1)[C@@H](C)OC | 27.5 | 121 | 453 | 0.472 |  |
| CCN(CC)[C@@H](C(=O)N1CCC[C@H]1c1ncc(-c2ccc(-c3ccc(-c4cnc([C@@H]5CCCN5C(=O)[C@@H](c5ccccc5)N(CC)CC)[nH]4)cc3)cc2)[nH]1)c1ccccc1 | 25.5 | 6 | 1090 | 0.013 | clearance [5]: 4 mL/min/kg |
| COC(=O)NCC(=O)N1CCC[C@H]1c1ncc(-c2ccc(-c3ccc(-c4cnc([C@@H]5CCCN5C(=O)[C@H](NC(=O)OC)c5ccccc5)[nH]4)cc3)cc2)[nH]1 | 16.4 |  | 26.2 |  |  |
| COC(=O)N[C@@H](C(=O)N1CCC[C@H]1c1ncc(-c2ccc(-c3ncc(-c4cnc([C@@H]5CCCN5C(=O)[C@H](NC(=O)OC)c5ccccc5)[nH]4)cn3)cc2)[nH]1)c1ccccc1 | 18.6 |  |  |  | bioavailability [6]: 0.5%; half-life [7]: 1.7 h; AUC at 24 h [8]: 0.021 µM·h; Vd [9]: 1.7 L/kg; clearance [10]: 36 mL/min/kg |
| O=C([C@@H](c1ccccc1)N1CCOCC1)N1CCC[C@H]1c1ncc(-c2ccc(-c3ccc(-c4cnc([C@@H]5CCCN5C(=O)[C@@H](c5ccccc5)N5CCOCC5)[nH]4)cc3)cc2)[nH]1 | 34.9 | 11 | 239 | 0.054 |  |
| COC(=O)N[C@@H](C(=O)N1CCC[C@H]1c1ncc(-c2ccc(-c3ccc(-c4cnc([C@@H]5CCCN5C(=O)CNC(C)=O)[nH]4)cc3)cc2)[nH]1)c1ccccc1 | 1.2 |  |  |  |  |
| CCN(C)[C@@H](C(=O)N1CCC[C@H]1c1ncc(-c2ccc(-c3ccc(-c4cnc([C@@H]5CCCN5C(=O)[C@@H](c5ccccc5)N(C)CC)[nH]4)cc3)cc2)[nH]1)c1ccccc1 | 10.6 | 2 | 1980 | 0.006 | clearance [5]: 88 mL/min/kg |
| CC[C@H](NC(=O)OC)C(=O)N1CCC[C@H]1c1ncc(-c2ccc(-c3ccc(-c4cnc([C@@H]5CCCN5C(=O)[C@H](CC)NC(=O)OC)[nH]4)cc3)cc2)[nH]1 | 38.4 |  |  |  |  |
| COC(=O)N[C@@H](C(=O)N1CCC[C@H]1c1ncc(-c2ccc(-c3ccc(-c4cnc([C@@H]5CCCN5C(=O)[C@H](NC(=O)OC)c5ccccc5)[nH]4)nc3)cc2)[nH]1)c1ccccc1 | 17.9 |  |  |  |  |
| COC(=O)N[C@@H](C(=O)N1CCC[C@H]1c1ncc(-c2ccc(-c3ccc(-c4cnc([C@@H]5CCCN5C(=O)[C@@H]5CCCO5)[nH]4)cc3)cc2)[nH]1)c1ccccc1 | 48 | 27 | 802 | 0.127 |  |
| COC(=O)N[C@@H](C)C(=O)N1CCC[C@H]1c1ncc(-c2ccc(-c3ccc(-c4cnc([C@@H]5CCCN5C(=O)[C@H](C)NC(=O)OC)[nH]4)cc3)cc2)[nH]1 | 20.7 | 57 | 134 | 0.281 |  |
| COC(=O)N[C@H](C(=O)N1CCC[C@H]1c1ncc(-c2ccc(-c3ccc(-c4cnc([C@@H]5CCCN5C(=O)[C@@H](NC(=O)OC)C5CC5)[nH]4)cc3)cc2)[nH]1)C1CC1 | 50 |  |  |  |  |
| O=C(C(c1ccccc1)N1CC[C@H](F)C1)N1CCC[C@H]1c1ncc(-c2ccc(-c3ccc(-c4cnc([C@@H]5CCCN5C(=O)C(c5ccccc5)N5CC[C@H](F)C5)[nH]4)cc3)cc2)[nH]1 (stereo in doubt; 21) |  |  |  |  | permeability [1]: impermeable |
| COC(=O)NC1(C(=O)N2CCC[C@H]2c2ncc(-c3ccc(-c4ccc(-c5cnc([C@@H]6CCCN6C(=O)C6(NC(=O)OC)CC6)[nH]5)cc4)cc3)[nH]2)CC1 | 0.2 |  |  |  |  |
| O=C([C@@H](c1ccccc1)N1CCCC1)N1CCC[C@H]1c1ncc(-c2ccc(-c3ccc(-c4cnc([C@@H]5CCCN5C(=O)[C@@H](c5ccccc5)N5CCCC5)[nH]4)cc3)cc2)[nH]1 | 3.6 | 0.7 | 80 | 0.005 |  |
| CCN(CC)[C@@H](C(=O)N1CCC[C@H]1c1ncc(-c2ccc(-c3ccc(-c4cnc([C@@H]5CCCN5C(=O)[C@H](C)NC(=O)OC)[nH]4)cc3)cc2)[nH]1)c1ccccc1 | 25.3 | 30 | 1830 | 0.049 | concentration at 24 h [11]: 9 nM; bioavailability [12]: 66%; AUC at 24 h [13]: 1.2 µM·h; concentration at 24 h [14]: 178 nM; bioavailability [6]: 3.6%; AUC at 24 h [8]: 0.165 µM·h |
| CCOC(=O)N[C@@H](C)C(=O)N1CCC[C@H]1c1ncc(-c2ccc(-c3ccc(-c4cnc([C@@H]5CCCN5C(=O)[C@H](C)NC(=O)OCC)[nH]4)cc3)cc2)[nH]1 | 45.1 |  |  |  |  |
| COC(=O)N[C@@H](C(=O)N1CCC[C@H]1c1ncc(-c2ccc(-c3ccc(-c4cnc([C@@H]5CCCN5C(=O)[C@H](NC(=O)OC)c5ccccc5)[nH]4)cn3)cc2)[nH]1)c1ccccc1 | 17.7 |  |  |  |  |
| CN(C)[C@@H](C(=O)N1CCC[C@H]1c1ncc(-c2ccc(-c3ccc(-c4cnc([C@@H]5CCCN5C(=O)[C@@H]5CCCO5)[nH]4)cc3)cc2)[nH]1)c1ccccc1 | 20 | 27 | 563 | 0.062 |  |
| CN(C)[C@@H](C(=O)N1CCC[C@H]1c1ncc(-c2ccc(-c3ccc(-c4cnc([C@@H]5CCCN5C(=O)[C@H]5CCCO5)[nH]4)cc3)cc2)[nH]1)c1ccccc1 | 15.8 |  |  |  | bioavailability [15]: 6%; AUC at 24 h [16]: 1.42 µM·h; concentration at 24 h [17]: 539 nM; concentration at 24 h [18]: 25 nM; Vd [19]: 14 L/kg; half-life [20]: 7.8 h; concentration at 24 h [21]: 30 nM; bioavailability [22]: 60%; AUC at 24 h [23]: 0.436 µM·h; clearance [24]: 18 mL/min/kg; Vd [25]: 82 L/kg; half-life [7]: 14 h; Vd [9]: 60 L/kg; clearance [10]: 57 mL/min/kg |
| CC[C@H](NC(=O)OC)C(=O)N1CCC[C@H]1c1ncc(-c2ccc(-c3ccc(-c4cnc([C@@H]5CCCN5C(=O)[C@@H](c5ccccc5)N(CC)CC)[nH]4)cc3)cc2)[nH]1 | 36.3 |  | 471 |  | concentration at 24 h [14]: 132 nM; bioavailability [6]: 4.3% |
| COC(=O)N[C@H](C)C(=O)N1CCC[C@H]1c1ncc(-c2ccc(-c3ccc(-c4cnc([C@@H]5CCCN5C(=O)[C@@H](C)NC(=O)OC)[nH]4)cc3)cc2)[nH]1 | 4.7 |  |  |  |  |
| COC(=O)N[C@@H](C(=O)N1CCC[C@H]1c1ncc(-c2ccc(-c3ccc(-c4cnc([C@@H]5CCCN5C(=O)[C@H](C)NC(C)=O)[nH]4)cc3)cc2)[nH]1)c1ccccc1 | 10 |  |  |  |  |
| COC(=O)NC(C)(C)C(=O)N1CCC[C@H]1c1ncc(-c2ccc(-c3ccc(-c4cnc([C@@H]5CCCN5C(=O)C(C)(C)NC(=O)OC)[nH]4)cc3)cc2)[nH]1 | 2.6 |  |  |  |  |
| COC(=O)N[C@@H](C)C(=O)N1CCC[C@H]1c1ncc(-c2ccc(-c3ccc(-c4cnc([C@@H]5CCCN5C(=O)[C@H](NC(=O)OC)c5ccccc5)[nH]4)cc3)cc2)[nH]1 | 36.3 |  |  |  |  |
| COC(=O)N[C@@H](C(=O)N1CCC[C@H]1c1ncc(-c2ccc(-c3ccc(-c4cnc([C@@H]5CCCN5C(=O)[C@@H](C)NC(C)=O)[nH]4)cc3)cc2)[nH]1)c1ccccc1 | 2.8 |  |  |  |  |
